Source: patent US8362013B2, “Salt of ABT-263 and solid-state forms thereof” (AbbVie Inc., priority 2009, dated 2013)

Assays:
[1] = stability in an oxidative environment; assay type: physicochemical
[2] = test system: pro-apoptotic effects of other chemotherapeutic agents; settings: cited from earlier work
lymphoid malignancies = settings: cited from earlier work
[3] = test system: small-cell lung cancer (SCLC); settings: cited from earlier work

SMILES: CC1(C)CCC(c2ccc(Cl)cc2)=C(CN2CCN(c3ccc(C(=O)NS(=O)(=O)c4ccc(N[C@H](CCN5CCOCC5)CSc5ccccc5)c(S(=O)(=O)C(F)(F)F)c4)cc3)CC2)C1 [ABT-263]
- degradation in an oxidative environment [1]: susceptible to degradation

SMILES: CN(C)CC[C@H](CSc1ccccc1)Nc1ccc(S(=O)(=O)NC(=O)c2ccc(N3CCN(Cc4ccccc4-c4ccc(Cl)cc4)CC3)cc2)cc1[N+](=O)[O-] [ABT-737, N-(4-(4-((4′-chloro-(1,1′-biphenyl)-2-yl)methyl)piperazin-1-yl)benzoyl)-4-(((1R)-3-(dimethylamino)-1-((phenylsulfanyl)methyl)propyl)amino)-3-nitrobenzene-sulfonamide]
- potentiation of pro-apoptotic effects of other chemotherapeutic agents [2]: potentiates
- single-agent activity (lymphoid malignancies): single-agent activity
- single-agent activity [3]: single-agent activity
